Test results taken from patent US8318504B2, “MRP2 efflux pathway prognostic method” (priority 2009, dated 2012).

Legend:
Format in all cases: cell-based
OATP2B1 [1] = target: T1, OATP2B1 (Homo sapiens, UniProt O94956); assay: Inhibition by CLF of estrone-3-sulfate transport in CHO cells expressing OATP2B1; conditions: 0, 5 or 50 μmol/L CLF, 1 μmol/L estrone-3-sulfate
T1 construct: expressed in transfected cells; host or cells: CHO cells (stably transfected; Treiber et al. 2007)
T1 sequence (O94956 1-709): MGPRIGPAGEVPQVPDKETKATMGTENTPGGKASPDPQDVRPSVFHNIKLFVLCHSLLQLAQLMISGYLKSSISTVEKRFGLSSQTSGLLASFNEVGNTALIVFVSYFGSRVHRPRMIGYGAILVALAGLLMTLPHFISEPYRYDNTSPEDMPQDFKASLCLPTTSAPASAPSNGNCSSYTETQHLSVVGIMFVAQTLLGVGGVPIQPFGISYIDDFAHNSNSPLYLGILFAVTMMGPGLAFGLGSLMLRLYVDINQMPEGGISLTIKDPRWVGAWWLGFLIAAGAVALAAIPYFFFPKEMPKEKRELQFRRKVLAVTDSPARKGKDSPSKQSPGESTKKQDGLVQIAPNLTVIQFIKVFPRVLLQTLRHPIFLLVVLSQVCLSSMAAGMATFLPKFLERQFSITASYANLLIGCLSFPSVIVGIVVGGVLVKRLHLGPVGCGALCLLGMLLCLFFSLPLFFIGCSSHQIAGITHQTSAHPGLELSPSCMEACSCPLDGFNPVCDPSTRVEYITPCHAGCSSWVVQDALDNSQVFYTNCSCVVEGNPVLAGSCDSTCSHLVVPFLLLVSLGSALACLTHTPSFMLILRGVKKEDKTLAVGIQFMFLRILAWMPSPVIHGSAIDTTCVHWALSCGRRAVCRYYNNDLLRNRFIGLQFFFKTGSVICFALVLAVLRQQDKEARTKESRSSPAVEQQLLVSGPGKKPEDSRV
Method: FIGS. 3A-3D relate to inhibition of transport activity of hepatocellular uptake transporters by CLF. CHO cells expressing NTCP, OATP1B1, OATP1B3 and OATP2B1 were incubated with 0, 5 or 50 μmol/L CLF and with the substrates, 2.5 μmol/L TC, 1 μmol/L estrone-3-sulfate, 10 μmol/L TC and 1 μmol/L estrone-3-sulfate, respectively. Data represent means±SD of triplicate determinations.
For all transport experiments, cells grown on 3 cm culture dishes were cultured for 24 hours in media supplemented with 5 mmol/L sodium-butyrate to increase expression levels of transfected transporters [Palermo D P et al., J Biotechnol 1991 June; 19(1):35-47]. • Transport experiments with uptake of radioactively labeled substrates: These experiments were performed as described by Huber R D et al. [Am J Physiol Cell Physiol 2007 February; 292(2):C795-C806]. • Transport experiments with uptake of CLF: Uptake was performed in the same buffers as for the radioactive substrates above. […] After complete solubilization, 1.5 ml was used to measure fluorescence in a Perkin-Elmer LS-5 luminescence-spectrometer set at λexe 486 nm (slit 10 nm) and λem 520 nm (slit 5 nm). Protein was determined with the bicinchoninic acid method using a kit from Interchim (Montfuçon, France). […]

OATP2B1 [2] = target: T1, OATP2B1; assay: Uptake of CLF into CHO cells expressing OATP2B1; conditions: 1 μmol/L CLF, 1 or 5 minutes
Method: cDNA for human NTCP [Hagenbuch et al., J Clin Invest 1994 March; 93(3): 1326-1331] was cut with EcoRV and HindI and the coding region ligated into pcDNA5/FRT (Invitrogen, Life-Technologies, Carlsbad, Calif.). CHO FlpIn cells (Invitrogen, Life-Technologies) were transfected with the resulting construct using Lipofectamine® 2000 (Invitrogen, Life-Technologies). Stably transfected cells were selected with 550 μg Hygromycin-B in HAM-F12 medium (Gibco, Invitrogen, Life-Technologies). Transfected cells were cloned with the limiting dilution method. […] To further characterize the cloned cells, immunofluorescence localization of NTCP using a polyclonal antibody against NTCP [Kullak-Ublick G et al., Gastroenterology 1997 October; 113(4):1295-1305] was performed as described by Huber R D et al. [Am J Physiol Cell Physiol 2007 February; 292(2):[…]-[…]]. CHO cells expressing OATP1B1, OATP1B3 and OATP2B1 were described previously [Treiber et al., DMD 35:1400-1407, 2007]. […] After complete solubilization, 1.5 ml was used to measure fluorescence in a Perkin-Elmer LS-5 luminescence-spectrometer set at λexe 486 nm (slit 10 nm) and λem 520 nm (slit 5 nm). Protein was determined with the bicinchoninic acid method using a kit from Interchim (Montfuçon, France). […]

wild type CHO cells = assay: Effect of CLF on substrate uptake in wild type CHO cells
Method: For all transport experiments, cells grown on 3 cm culture dishes were cultured for 24 hours in media supplemented with 5 mmol/L sodium-butyrate to increase expression levels of transfected transporters [Palermo D P et al., J Biotechnol 1991 June; 19(1):35-47]. • Transport experiments with uptake of radioactively labeled substrates: These experiments were performed as described by Huber R D et al. [Am J Physiol Cell Physiol 2007 February; 292(2):C795-C806]. • Transport experiments with uptake of CLF: Uptake was performed in the same buffers as for the radioactive substrates above. For visualization of CLF uptake, cells were immediately inspected with a Leica-DM-IRBE-inverted-microcope (Leica-Microsystems, Wetzlar, Germany) equipped with a Hamamatsu-ORKA-ER-camera (Hamamatsu-Photonoics, Japan). To determine uptake of CLF, cells were solubilized by the addition of 2 ml 1% (w/v) Triton-X-100. After complete solubilization, 1.5 ml was used to measure fluorescence in a Perkin-Elmer LS-5 luminescence-spectrometer set at λexe 486 nm (slit 10 nm) and λem 520 nm (slit 5 nm). Protein was determined with the bicinchoninic acid method using a kit from Interchim (Montfuçon, France). Transport data from OATP expressing cell lines were corrected for binding by subtracting 0 min time points (blank values) and except for FIGS. 2B and 2C were normalized per minute. […]

CC(CCC(=O)NC(CCCCNC(=S)Nc1ccc(-c2c3ccc(=O)cc-3oc3cc(O)ccc23)c(C(=O)O)c1)C(=O)O)C1CCC2C3C(O)CC4CC(O)CCC4(C)C3CC(O)C12C (stereo not drawn) [CLF, cholyl lysyl fluorescein]
inhibition of transport of estrone-3-sulfate mediated by OATP2B1 by CLF (OATP2B1 [1]): much less efficiently | uptake of CLF into OATP2B1 cells (OATP2B1 [2]): no uptake | influence of CLF on substrate uptake in wild type cells (wild type CHO cells): no influence on substrate uptake
